Results taken from patent publication US8617523B2, “Anti-biofilm carbonate compounds for use in oral care compositions” (Colgate-Palmolive Company, priority 2009, dated 2013).
≈ marks a conversion by molar mass, not a printed value.

Experiments:
A. naeslundii = experiment: Minimal Inhibitory Concentration (MIC) anti-microbial test; format: cell-based; details: Actinomyces naeslundii; single species of A. naeslundii biofilm; read-out: MIC (Minimum Inhibitory Concentration, bactericidal)
Description: The anti-microbial test was measured according to the SOP No. ATO-5308-00 for determination of Minimal Inhibitory Concenctration (MIC).

A. naeslundii biofilm = experiment: crystal violet assay, anti-biofilm (MBEC); format: cell-based, Actinomyces naeslundii; details: single species of A. naeslundii biofilm

SMILES	MIC (A. naeslundii)	MBEC (Minimum Biofilm Eradication Concentration, anti-biofilm) (A. naeslundii biofilm)
CC(CCCC(C)(C)O)CCOC(=O)Oc1ccccc1 (stereo not drawn)	156 µg/mL (≈ 530 µM)	78 ppm
CCCCC(CC)COC(=O)OCCCCCCO (stereo not drawn)	78 µg/mL (≈ 284 µM)	39 ppm
CC(C)C(O)C(C)(C)COC(=O)OC1CCCC1 (stereo not drawn)	625 µg/mL (≈ 2420 µM)	156 ppm
